Results as given in patent publication US20240287081A1, “PERFLUOROALKANE SUBSTITUTED PYRAZOLO[3,4-D]PYRIMIDIN AND PYRROLO[2,3-D]PYRIMIDIN COMPOUNDS AND USES THEREOF” (ICAHN SCHOOL OF MEDICINE AT MOUNT SINAI, priority 2021, published 2024).

What was measured:
RET (WT and M918T) = test: NanoBRET cell based target engagement assay; settings: RET-Nluc in HEK 293T cells; for cellular IC50 against RET, ranking in words: pyrazolo- and pyrrolopyrimidine series
Protocol: Assays were completed in duplicate. […] FIG. 8D is a graph of the cell-based target engagement for the indicated compounds against wild-type and M918T RET. IC50 values were determined based on 8-point titration curves of free ligand. Competition assays were completed in technical triplicate against full-length human RET-Nluc expressed in 293T cells, complexed with an active-site fluorescent tracer.
In this assay, a bioluminescence resonance energy transfer (BRET) signal is generated between nanoLuciferase tagged RET (expressed in HEK 293T cells) and an active-site based fluorescent tracer. […] Using this assay, in vivo binding was determined for a series of compounds against mutant (M918T) and wild-type RET (FIG. 8D).

ptc>dRet^M955T flies = test: Fly rescue assay (Drosophila MTC model ptc>dRet^M955T); assay type: in vivo; settings: compound in fly food; for rescue (percent viability of adult flies, adults/pupae×100): 13 d at 25° C., baseline viability 0%
Protocol: Kinase-mutated fly stocks were obtained from Bloomington Drosophila Stock Center (BDSC; Bloomington, IN). The active mutant form of Drosophila Ret (dRet^955T) carries an M955T mutation corresponding to the M918T mutation commonly reported for multiple endocrine neoplasia (MEN) type 2B patients12,14,16,34. The ptc-gal4, UAS-GFP;UAS-dRet^M955T/SM5tub-gal80-TM6B transgenic flies were prepared according to standard protocols and crossed with non-transgenic w-flies (BDSC) to generate ptc-gal4, UAS-GFP; UAS-dRet^M955T(ptc>dRet^M955T) flies for chemical screening.
All drugs were synthesized in-house. All compounds were dissolved in DMSO (Sigma-Aldrich; St. Louis, MO) and mixed with semi-defined fly medium (BDSC) to make drug food (0.1% final DMSO concentration). For drug screening, ptc>dRet^M955T embryos were raised until adulthood on drug food for 13 d at 25° C. The number of empty pupal cases (i.e., adults) ? that of total pupal cases (P) to determine % viability. Fly randomization was used throughout the assays.
In this model, compounds are assessed based on their ability to suppress oncogenic Ret^M955T-induced tumors, which can be quantified as ‘rescue’ from lethality. […] The baseline viability of ptc>Ret^1955T flies was calibrated to zero, which creates a high bar for rescue but also reduces false-positive hits. Hundreds of flies are tested per condition (typical n values are […] administered through fly food.

AKSP CRC tumoroid line = test: 3D CRC tumoroid viability, AKSP model; assay type: cell-based, mice; settings: at 5.0 μM, viability after 72 hours
Protocol: To model different stages of colorectal cancer (CRC), intestinal organoids were derived from genetically engineered mice with the following genotypes Apc^flx/flx (A) and Apc^flx/flx Kra^LSL-G12D Smad4^flx/flx (AKS) and transformed ex vivo by addition of 100 nM 4-OHT for 24 hours. Once the organoids acquired a spheroid morphology characteristic of CRC Tumoroids, trp53 was knocked out in AKS tumoroids using CRISPR-CAS9 technology to generate the AKSP line. CRC tumoroid lines as well as wild type intestinal organoids were seeded onto Matrigel in 96 well plates in triplicates 16 hours before being treated with the indicated compounds at a final concentration of 0.5 μM. 72 hours later, cell viability was assessed using Titerglo® assay. Results of 3D CRC organoid line data for pyrazolo- and pyrrolopyrimidine compounds at 0.5 μm were obtained (FIGS. 25A-G). […] In the AKSP model, at 5.0 μM, the top ten compounds were: APS-8-35-3, APS-8-35-4, APS-6-87, APS-9-3, AD80, APS-8-85-2, APS-8-51-3, APS-9-2, and APS-8-56-4.

[1] = tested on: HCC tumor organoids, BC (B-Catenin); test: 3D HCC tumor organoid viability, BC model; assay type: cell-based; settings: 5.0 μM, viability three days post drug administration
Protocol: (§1) For assays in HCC tumor organoids, 96 well plates were first coated with a 50:50 solution of basal media:Matrigel ([…]), which polymerized for 15 minutes at 37° C. Tumor organoids were taken out of Matrigel, broken, and washed. Tumor organoids were seeded at 1,000 cells per well and were treated the following day with single doses of drugs in technical triplicate. Final DMSO concentrations were kept below 0.5%. Cell viability was measured three days post drug administration with either luminescence from CellTiter-Glo or absorbance at 560 and 590 nm from resazurin. Viability data was analyzed by normalizing individual drug-treated well values to DMSO-treated wells (BC=B-Catenin; SR=sorafenib resistant). Results of 3D HCC cell line data for pyrazolo- and pyrrolopyrimidine compounds at 0.5 μm (FIGS. 22A-F), 0.05 μm (FIGS. 23A-F), and 5.0 μm (FIGS. 24A-F) were obtained. […] In the BC model, at 5.0 μM, the top ten compounds were: APS-8-100-4, APS-8-52-3, APS-8-51-4, APS-7-25-2, APS-8-100-3, APS-8-51-3, APS-8-50-4, APS-8-52-4, and APS-7-38. In the SR model, at 5.0 μM, the top ten compounds were: APS-8-51-3, APS-8-50-4, APS-8-51-4, APS-8-52-3, APS-8-50-3, APS-7-52-2, APS-8-52-4, APS-7-52-1, and APS-8-100-4.

[2] = tested on: HCC tumor organoids, SR (sorafenib resistant); test: 3D HCC tumor organoid viability, SR model; assay type: cell-based; settings: 5.0 μM, viability three days post drug administration
Protocol: as §1

[3] = target: T1, wild-type RET kinase domain (Homo sapiens, UniProt P07949); test: Wild-type RET Kd, bead based competition assay (KINOMEscan, DiscoverX); assay type: binding; settings: recombinant human wild-type RET kinase domain, average of two replicates; read-out: Kd towards wild-type RET
T1 construct: determined against recombinant-human, wild-type RET kinase domain; phage display fusion (kinase expressed on phage); purchased DiscoverX (Fremont, CA); host or cells: phage
T1 sequence (P07949 724-1016 limits assumed): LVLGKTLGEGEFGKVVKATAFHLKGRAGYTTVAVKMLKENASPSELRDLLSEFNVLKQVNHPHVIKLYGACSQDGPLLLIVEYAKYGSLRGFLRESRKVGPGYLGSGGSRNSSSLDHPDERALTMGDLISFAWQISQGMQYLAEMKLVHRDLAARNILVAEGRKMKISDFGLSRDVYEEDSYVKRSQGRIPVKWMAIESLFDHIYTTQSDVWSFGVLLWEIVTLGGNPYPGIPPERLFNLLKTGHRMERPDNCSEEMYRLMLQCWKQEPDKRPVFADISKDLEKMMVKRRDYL
Protocol: Wild-type RET Kd values were determined by DiscoverX (Fremont, CA) using a bead based competition assay (KINOMEscan). In brief, kinases are expressed on phage and immobilized on beads via active site-directed ligands. Test compounds are premixed with kinases and assayed for the ability to compete for immobilized ligands. Binding constants are calculated with a standard dose-response curve and the Hill equation, with Hill slope set to −1. […] Kd values are the average of two experimental replicates.
To assess if the differences in activity between R^F- and R^H-analogs were related to alterations in target engagement, representative analogs for binding on wild-type RET were compared. For this KD values of compounds 40 (para-C2F5) and 50 (para-C2H5) were determined against recombinant-human, wild-type RET kinase domain.

Row | SMILES | ranking by inhibition of cell proliferation, AKSP model (AKSP CRC tumoroid line) | ranking by inhibition of cell proliferation, BC model [1] | ranking by inhibition of cell proliferation, SR model [2] | other results
1 | CC(C)n1nc(-c2ccc(NC(=O)Nc3cc(C(F)(F)F)ccc3F)cc2)c2c(N)ncnc21 [AD80, 1-(4-(4-amino-1-isopropyl-1H-pyrazolo[3,4-d]pyrimidin-3-yl)phenyl)-3-(2-fluoro-5-(trifluoromethyl)phenyl)urea, reference compound] | top ten |  |  | cellular IC50 wild-type RET versus M918T mutant, in words (RET (WT and M918T)): slightly lower IC50 value for wild-type RET over mutant; rescue (percent viability of adult flies, adults/pupae×100) (ptc>dRet^M955T flies): 80%
2 | CC(C)n1cc(-c2ccc(NC(=O)Nc3cc(C(F)(F)F)ccc3F)cc2)c2c(N)ncnc21 [APS-6-87, 1-(4-(4-Amino-7-isopropyl-7H-pyrrolo[2,3-d]pyrimidin-5-yl)phenyl)-3-(2-fluoro-5-(trifluoromethyl)phenyl)urea] | top ten |  |  | 
3 | CC(C)n1nc(-c2ccc(NC(=O)Nc3cc(C(F)(C(F)(F)F)C(F)(F)C(F)(F)F)ccc3F)cc2)c2c(N)ncnc21 (centres unmarked) [APS-8-35-3, 1-(4-(4-Amino-1-isopropyl-1H-pyrazolo[3,4-d]pyrimidin-3-yl)phenyl)-3-(2-fluoro-5-(perfluorobutan-2-yl)phenyl)urea] | top ten |  |  | cellular IC50 against RET, ranking in words (RET (WT and M918T)): highest IC50 values
4 | CC(C)n1cc(-c2ccc(NC(=O)Nc3cc(C(F)(C(F)(F)F)C(F)(F)C(F)(F)F)ccc3F)cc2)c2c(N)ncnc21 (centres unmarked) [APS-8-35-4, 1-(4-(4-Amino-7-isopropyl-7H-pyrrolo[2,3-d]pyrimidin-5-yl)phenyl)-3-(2-fluoro-5-(perfluorobutan-2-yl)phenyl)urea 2,2,2-trifluoroacetate] | top ten |  |  | 
5 | CC(C)n1nc(-c2ccc(NC(=O)Nc3ccc(C(F)(F)C(F)(F)C(F)(F)F)cc3)cc2)c2c(N)ncnc21 [APS-8-51-3, 1-(4-(4-Amino-1-isopropyl-1H-pyrazolo[3,4-d]pyrimidin-3-yl)phenyl)-3-(4-(perfluoropropyl)phenyl)urea] | top ten | top ten | top ten | 
6 | CC(C)n1cc(-c2ccc(NC(=O)Nc3ccc(C(F)(F)C(F)(F)C(F)(F)F)cc3)cc2)c2c(N)ncnc21.O=C(O)C(F)(F)F [APS-8-51-4, 1-(4-(4-Amino-7-isopropyl-7H-pyrrolo[2,3-d]pyrimidin-5-yl)phenyl)-3-(4-(perfluoropropyl)phenyl)urea 2,2,2-trifluoroacetate] |  | top ten | top ten | rescue activity in the fly model, in words (ptc>dRet^M955T flies): exceptional in vivo activity; rescue (percent viability of adult flies, adults/pupae×100) (ptc>dRet^M955T flies): 100%
7 | CNC(=O)c1cc(Oc2ccc(NC(=O)Nc3ccc(C(F)(F)C(F)(F)C(F)(F)C(F)(F)F)cc3)c(F)c2)ccn1 [APS-8-52-2] |  |  |  | Kd [3]: 100 nM
8 | CC(C)n1cc(-c2ccc(NC(=O)Nc3ccc(C(F)(F)C(F)(F)C(F)(F)C(F)(F)F)cc3)cc2)c2c(N)ncnc21 [APS-8-52-4, 1-(4-(4-Amino-7-isopropyl-7H-pyrrolo[2,3-d]pyrimidin-5-yl)phenyl)-3-(4-(perfluorobutyl)phenyl)urea] |  | top ten | top ten | 
9 | CC(C)n1cc(-c2ccc(NC(=O)Nc3cccc(C(F)(C(F)(F)F)C(F)(F)C(F)(F)F)c3)cc2)c2c(N)ncnc21 (centres unmarked) [APS-8-56-4, 1-(4-(4-Amino-7-isopropyl-7H-pyrrolo[2,3-d]pyrimidin-5-yl)phenyl)-3-(3-(perfluorobutan-2-yl)phenyl)urea] | top ten |  |  | 
10 | CC(C)n1cc(-c2ccc(NC(=O)Nc3ccc(C(F)(F)F)cc3)cc2)c2c(N)ncnc21 [APS-8-85-2, 1-(4-(4-Amino-7-isopropyl-7H-pyrrolo[2,3-d]pyrimidin-5-yl)phenyl)-3-(4-(trifluoromethyl)phenyl)urea] | top ten |  |  | 
11 | CC(C)n1cc(-c2ccc(NC(=O)Nc3ccc(C(F)(F)C(F)(F)F)cc3)cc2)c2c(N)ncnc21 [APS-8-100-4, 1-(4-(4-Amino-7-isopropyl-7H-pyrrolo[2,3-d]pyrimidin-5-yl)phenyl)-3-(4-(perfluoroethyl)phenyl)urea] |  | top ten | top ten | cellular IC50 against RET, ranking in words (RET (WT and M918T)): lowest IC50 values among the para-substituted compounds tested; rescue activity in the fly model, in words (ptc>dRet^M955T flies): exceptional in vivo activity; rescue (percent viability of adult flies, adults/pupae×100) (ptc>dRet^M955T flies): 100%
12 | CC(C)n1cc(-c2ccc(NC(=O)Nc3cccc(C(F)(F)F)c3)cc2)c2c(N)ncnc21 [APS-9-2, 1-(4-(4-Amino-7-isopropyl-7H-pyrrolo[2,3-d]pyrimidin-5-yl)phenyl)-3-(3-(trifluoromethyl)phenyl)urea] | top ten |  |  | 
13 | CC(C)n1cc(-c2ccc(NC(=O)Nc3cccc(C(F)(F)C(F)(F)F)c3)cc2)c2c(N)ncnc21 [APS-9-3, 1-(4-(4-Amino-7-isopropyl-7H-pyrrolo[2,3-d]pyrimidin-5-yl)phenyl)-3-(3-(perfluoroethyl)phenyl)urea 2,2,2-trifluoroacetate] | top ten |  |  | 
